Measured values reported in US20200237779A1, “COMBINATION THERAPY WITH A BET INHIBITOR AND A BCL-2 INHIBITOR” (Hoffmann-La Roche Inc., priority 2017, published 2020).

Tested on: KMS-12BM MM xenografts
Test: In vivo antitumor efficacy against KMS-12BM MM xenografts
Parameters: species or system CIEA NOG mice
Settings: D14-25; for Antitumor efficacy (result in words): KMS-12BM xenografts, RG6146 30 mg/kg ip, venetoclax 100 mg/kg po, single agent or combination; for Tumor Regression (%) / npTCR and CI (non-parametric Treatment to Control Ratio) / TGI % (tumor growth inhibition): s.c. KMS-12BM human MM xenografts in female CIEA NOG mice, RG6146 30 mg/kg ip QD, venetoclax 100 mg/kg po QD, Day 25; for TGI % (tumor growth inhibition): compared to control
Procedure: The in vivo antitumor efficacy of BET inhibitor RG6146 in combination with Bcl-2 inhibitor venetoclax (GDC-0199) was evaluated against KMS-12BM MM xenografts.
BET inhibitor RG6146 was provided as a powder from Roche, Basel, Switzerland and resuspended prior to use. Bcl-2 inhibitor venetoclax was provided by Genentech, South San Francisco, USA and formulated prior to use.
The original KMS-12BM human Multiple Myeloma cell line (MM) was purchased from ATCC (Manassas, V., USA). Expansion of tumor cells for the transplantation was done by the TAP CompacT CellBase Cell Culture Roboter according to the protocol. Tumor cell line was routinely cultured in RPMI 1640 medium, FCS 10% and L-Glutamin 2 mM at 37° C. in a water-saturated atmosphere at 5% CO2. Culture passage was performed with trypsin/EDTA 1× splitting twice/week and passage 3 used for transplantation.
Female CIEA NOG mice (Taconic), age 5-7 weeks at arrival, maintained under specific-pathogen-free condition with daily cycles of 12 h light/12 h darkness according to committed guidelines. Experimental study protocol was reviewed and approved by local government. After arrival animals were maintained in animal facility for one week to get accustomed to new environment and for observation. Continuous health monitoring was carried out on regular basis. Diet food and autoclaved water were provided ad libitum.
Animals were controlled daily for clinical symptoms and detection of adverse effects. For monitoring throughout the experiment body weight of animals was documented.
Animal treatment started after randomisation when median tumor size was about 170 mm^3. The vehicle was administered ip once daily (QD) on D14-25. BET inhibitor RG6146 ip treatment at 30 mg/kg was done as single agent and in combination on D14-25. Finally, Bcl-2 inhibitor venetoclax was given orally at 100 mg/kg as single agent and in combination on D14-25.
KMS-12BM human MM cells were s.c. inoculated with Matrigel onto female CIEA-NOG mice. Tumor bearing mice were randomized 14 days later to the indicated study groups and compound treatment initiated. Tumor bearing animals were treated with vehicle control, with the BET inhibitor RG6146 at 30 mg/kg or with Bcl-2 inhibitor venetoclax at 100 mg/kg as single agent and in combination thereof.

SMILES	Antitumor efficacy (result in words)	Tumor Regression (%)	npTCR and CI (non-parametric Treatment to Control Ratio)	TGI % (tumor growth inhibition) [%]
Cc1sc2c(c1C)C(c1ccc(Cl)cc1)=N[C@@H](CC(=O)NCCCN1CCN(C)CC1)c1nnc(C)n1-2 [RG6146, 2-[(S)-4-(4-Chloro-phenyl)-2,3,9-trimethyl-6H-1-thia-5,7,8,9a-tetraaza-cyclopenta[e]azulen-6-yl]-N-[3-(4-methyl-piperazin-1-yl)-propyl]-acetamide]	nearly tumor stasis	0	0.06	94
CC1(C)CCC(CN2CCN(c3ccc(C(=O)NS(=O)(=O)c4ccc(NCC5CCOCC5)c([N+](=O)[O-])c4)c(Oc4cnc5[nH]ccc5c4)c3)CC2)=C(c2ccc(Cl)cc2)C1 [venetoclax, 4-(4-{[2-(4-chlorophenyl)-4,4-dimethylcyclohex-1-en-1-yl]methyl}piprazin-1-yl)-N-({3-nitro-4-[(tetrahydro-2H-pyran-4-ylmethyl)amino]phenyl}sulfonyl)-2-(1H-pyrrolo[2,3-b]pyridin-5-yloxy)benzamide]	weaker activity	0	0.55	49
